Measurements: patent US5198452A, “Styryl phridyl compounds and their pharmaceutical compositions” (Yoshitomi Pharmaceutical Industries, Ltd., priority 1991, dated 1993)
Where two headings read alike, the source gives them in different places.

Assays:
[1] = system: bronchoconstriction in guinea pigs induced with leukotriene D4; assay: Bronchoconstriction in guinea pigs induced with leukotriene D4; type: in vivo, guinea pig (female Hartley); settings: Cavia porcellus
Procedure: Actions of bronchoconstriction in guinea pigs induced with leukotriene D4.
Resistance to lung inflation was measured by the overflow method of Konzett and Rossler (Naunyn Schmiedebergs Arch. Exp. pathol. Pharmakol., 195, 71-74, 1940), modified by the use of an air pressure transducer. Female Hartley guinea pigs (350-450 g) were anesthetized with urethane (1.5 g/kg, i.p.). An endotracheal tube was inserted in the trachea and connected to an air pump (Matsushita Denko Co., Ltd.) with an exhaust relay of 50 strokes/minutes (PK-0305-NC, Takasago Electric, Inc.). The animals were artificially ventilated at a constant volume (3-4 ml). Tracheal pressure was recorded with a side-arm of the cannula connected to a pressure transducer (MFP-1, Nihon Kohden Kogyo Co., Ltd.). Test compounds or vehicles were administered i.v. (0.03 ml/100 g) 5 minutes or p.o. (0.5 ml/100 g) 1 hour prior to the intraveneous injection of LT04 (1 μg/kg). All compounds were injected through the cannulated jugular vein. The peak bronchoconstriction of each animal was determined as the percentage of the maximal pressure obtained by clamping off the trachea at the end of each experiment.
The inhibitory effect of the test compounds were expressed as follows: % of inhibition=(1-T/C)×100 wherein T and C are the average peak bronchoconstrictions for the compounds of the present invention and the vehicle, respectively.
The 50% effective doses (ED50, mg/kg) were calculated graphically.

[2] = system: leukotriene D4-induced contraction of guinea pig terminal ileum; assay: Inhibition of contractions of guinea pig terminal ileum induced with leukotriene D4; set-up: species or system guinea pig (male Hartly); settings: 1 nM LTD4; 2 min incubation; indomethacin 3 μM, atropin 0.3 μM; 37° C
Procedure: The inhibition of contractions of guinea pig terminal ileum induced with leukotriene D4.
Segments of male Hartly guinea pig terminal ileus were mounted under 750 mg tension in a 10 ml organ bath containing a Tyrode solution. To eliminate instrinsic prostaglandin and cholinergic responses, indomethacin (3 μM) and atropin (0.3 μM) were incorporated into bathing solution under continuous aeration at 37° C. […] measurements were made with an isotonic transducer and recorded on a multipen-recorder. After an equilibration period of 30-60 minutes, isotonic responses were 1 nm LTD4 were recorded until reproducible responses obtained. The submaximal contraction induced by 1 nM LTD4 served as control. Test compounds were dissolved in ethanol (0.1% final concentration) and incubated at various concentrations for 2 minutes before contractions were induced with 1 nM LTD4. The inhibition of contraction was calculated relative to the preceding control contraction. The inhibitory concentration (IC50, g/ml) were calculated graphically.

Acute toxicity = settings: mouse, in vivo, single administration, after 10 days, Litchfield-Wilcoxon
Procedure: EXPERIMENT EXAMPLE 3: ACUTE TOXICITY
The compound of Example 1 of the present invention was intraveneously (iv) or orally (po) administered to a group of male ddy mice once. After 10 days, the LD50 values were determined by the Litchfield-Wilcoxon method.

[3] = 5 min, iv, 5 minutes prior to LTD4 (1 μg/kg i.v.), read-out: Action of Bronchoconstriction in guinea pigs induced with LTD4 [ED50 (mg/kg)] iv
[4] = po, 1 hour prior to LTD4 (1 μg/kg i.v.), read-out: Action of Bronchoconstriction in guinea pigs induced with LTD4 [ED50 (mg/kg)] po

| SMILES | ED50 [1, 3] [mg/kg] | ED50 [1, 4] [mg/kg] | The inhibition of contractions of guinea pig terminal ileum induces with LTD4 [IC50 (g/ml)] [2] [g/mL] | LD50 at 240 h (Acute toxicity; iv, read-out: LD50 (mg/kg), iv) [mg/kg] | LD50 at 240 h (Acute toxicity; po, read-out: LD50 (mg/kg), po) [mg/kg] |
| --- | --- | --- | --- | --- | --- |
| CCC(CC)(CC(=O)Nc1cccc(/C=C/c2cccc(COCCCCc3ccccc3)n2)c1)C(=O)O [Compound A, 2-[(E)-2-(3-(3-carboxy-3-ethylvalerylamino)phenyl)ethenyl]-6-(4-phenylbutoxy)methylpyridine 1/2 hydrate] | 0.037 | 1.3 | 2.2e-09 |  |  |
| CCCCc1ccc(CCCCOCc2cccc(/C=C/c3cccc(NC(=O)CC(CC)(CC)C(=O)O)c3)n2)cc1 [Compound B, 2-[(E)-2-(3-(3-carboxy-3-ethylvalerylamino)phenyl)ethenyl]-6-[4-(4-butylphenyl)butoxy]methylpyridine] | 0.0054 | 0.8 | 1.1e-10 |  |  |
| CCC(CC)(CC(=O)Nc1cccc(/C=C/c2cccc(COCCCCc3ccc(F)cc3)n2)c1)C(=O)O [Compound C, 2-[(E)-2-(3-(3-carboxy-3-ethylvalerylamino)phenyl)ethenyl]-6-[4-(4-fluorophenyl)butoxy]methylpyridine 1/2 hydrate] | 0.03 | 0.7 | 2.5e-09 |  |  |
| CCc1ccc(CCCCOCc2cccc(/C=C/c3cccc(NC(=O)CC(CC)(CC)C(=O)O)c3)n2)cc1 [Compound D, 2-[(E)-2-(3-(3-carboxy-3-ethylvalerylamino)phenyl)ethenyl]-6-[4-(4-ethylphenyl)butoxy]methylpyridine] | 0.0023 | 1 | 6.6e-11 |  |  |
| CCCc1ccc(CCCCOCc2cccc(/C=C/c3cccc(NC(=O)CC(CC)(CC)C(=O)O)c3)n2)cc1 [Compound E, 2-[(E)-2-(3-(3-carboxy-3-ethylvalerylamino)phenyl)ethenyl]-6-[4-(4-propylphenyl)butoxy]methylpyridine 1/4 hydrate] | 0.006 | 1.9 | 6e-10 |  |  |
| CCC(CC)(CC(=O)Nc1cccc(/C=C/c2cccc(COCCCCc3ccc(C(C)C)cc3)n2)c1)C(=O)O [Compound F, 2-[(E)-2-(3-(3-carboxy-3-ethylvalerylamino)phenyl)ethenyl]-6-[4-(4-isopropylphenyl)butoxy]methylpyridine] | 0.014 | 2.2 | 4e-10 |  |  |
| CCC(CC)(CC(=O)Nc1cccc(/C=C/c2cccc(COCCCCc3ccc(CC(C)C)cc3)n2)c1)C(=O)O [Compound G, 2-[(E)-2-(3-(3-carboxy-3-ethylvalerylamino)phenyl)ethenyl]-6-[4-(4-isobutylphenyl)butoxy]methylpyridine] | 0.0012 | 1.6 | 3.6e-10 |  |  |
| CCOc1ccc(CCCCOCc2cccc(/C=C/c3cccc(NC(=O)CC(CC)(CC)C(=O)O)c3)n2)cc1 [Compound H, 2-[(E)-2-(3-(3-carboxy-3-ethylvalerylamino)phenyl)ethenyl]-6-[4-(4-ethoxyphenyl)butoxy]methylpyridine] | 0.01 | 2 | 1.8e-10 |  |  |
| CCCOc1ccc(CCCCOCc2cccc(/C=C/c3cccc(NC(=O)CC(CC)(CC)C(=O)O)c3)n2)cc1 [Compound I, 2-[(E)-2-(3-(3-carboxy-3-ethylvalerylamino)phenyl)ethenyl]-6-[4-(4-propoxyphenyl)butoxy]methylpyridine] | 0.0023 | 2.5 | 7.6e-11 |  |  |
| CCCCOc1ccc(CCCCOCc2cccc(/C=C/c3cccc(NC(=O)CC(CC)(CC)C(=O)O)c3)n2)cc1 [Compound J, 2-[(E)-2-(3-(3-carboxy-3-ethylvalerylamino)phenyl)ethenyl]-6-[4-(4-butoxyphenyl)butoxy]methylpyridine 3/2 hydrate] | 0.0046 | 0.46 | 9e-11 |  |  |
| CCC(CC)(CC(=O)Nc1cccc(/C=C/c2cccc(COCCCCc3ccc(OCCC(C)C)cc3)n2)c1)C(=O)O [Compound K, 2-[(E)-2-(3-(3-carboxy-3-ethylvalerylamino)phenyl)ethenyl]-6-[4-(4-isopentyloxyphenyl)butoxy]methylpyridine 1/2 hydrate] | 0.0036 | 0.25 | 3.1e-10 |  |  |
| CCCc1c(OCCCCc2nnn[nH]2)ccc(C(C)=O)c1O [Compound L, 1-[2-hydroxy-3-propyl-4-(4-(1H-tetrazol-5-yl)butoxy)phenyl]ethanone, reference compound] | 0.28 | 22 | 2.5e-08 |  |  |
| CCC(CC)(CC(=O)Nc1cccc(/C=C/c2cccc(COCCCCc3ccc(C)cc3)n2)c1)C(=O)O [Example 1, 2-[(E)-2-(3-(3-carboxy-3-ethylvalerylamino)phenyl)ethenyl]-6-[4-(4-methylphenyl)butoxy]methylpyridine] |  |  |  | > 300 | > 1000 |
